From the CheMixHub ionic liquid set
± gives the uncertainty stated by the source.

Experiment: xn = mol fraction of the nth substance listed
Conditions: for viscosity: 100 kPa; for electrical conductivity: 101.3 kPa

CCCC[n+]1ccn(C)c1.O=S(=O)([O-])C(F)(F)F + OCCO
Conditions	viscosity [mPa·s]
298.15 K, x1 = 0.0926	15.47 ± 0.63
298.15 K, x1 = 0.6922	33.7 ± 1.4
303.15 K, x1 = 0.0926	12.53 ± 0.51
303.15 K, x1 = 0.4999	21.87 ± 0.9
303.15 K, x1 = 0.6922	27.7 ± 1.1
308.15 K, x1 = 0.2985	13.86 ± 0.57
308.15 K, x1 = 0.4999	18.33 ± 0.75
308.15 K, x1 = 0.6922	23.66 ± 0.98
308.15 K, x1 = 0.7966	29 ± 1.2
313.15 K, x1 = 0.2985	11.67 ± 0.48
313.15 K, x1 = 0.4999	15.58 ± 0.64
313.15 K, x1 = 0.6922	20.18 ± 0.83
318.15 K, x1 = 0.0926	7.45 ± 0.3
318.15 K, x1 = 0.4999	13.4 ± 0.55
323.15 K, x1 = 0.1936	6.92 ± 0.28
323.15 K, x1 = 0.3912	9.9 ± 0.41
323.15 K, x1 = 0.7966	18.19 ± 0.75

CCCC[n+]1ccn(C)c1.[Cl-] + OC[C@H]1O[C@@](CO)(O[C@H]2O[C@H](CO)[C@@H](O)[C@H](O)[C@H]2O)[C@@H](O)[C@@H]1O + O
298.15 K
Conditions	electrical conductivity [S/m]
x2 = 0, x1 = 8.71e-06	0.00583 ± 6e-05
x2 = 0, x1 = 1.208e-05	0.00794 ± 8e-05
x2 = 0, x1 = 1.485e-05	0.00965 ± 0.0001
x2 = 0, x1 = 1.707e-05	0.01101 ± 0.00011
x2 = 0, x1 = 1.937e-05	0.01241 ± 0.00012
x2 = 0, x1 = 2.164e-05	0.0138 ± 0.00014
x2 = 0, x1 = 2.397e-05	0.0152 ± 0.00015
x2 = 0, x1 = 2.6e-05	0.0164 ± 0.00017
x2 = 0, x1 = 2.824e-05	0.0177 ± 0.00018
x2 = 0, x1 = 3.029e-05	0.019 ± 0.00019
x2 = 0.003591, x1 = 1.096e-05	0.00618 ± 6e-05
x2 = 0.003591, x1 = 1.434e-05	0.00795 ± 8e-05
x2 = 0.003591, x1 = 1.771e-05	0.0097 ± 0.0001
x2 = 0.003591, x1 = 2.081e-05	0.0113 ± 0.00011
x2 = 0.003591, x1 = 2.41e-05	0.013 ± 0.00013
x2 = 0.003591, x1 = 2.709e-05	0.0145 ± 0.00015
x2 = 0.003591, x1 = 3.023e-05	0.01612 ± 0.00016
x2 = 0.003591, x1 = 3.313e-05	0.0176 ± 0.00018
x2 = 0.003591, x1 = 3.593e-05	0.019 ± 0.00019
x2 = 0.007156, x1 = 8.21e-06	0.00407 ± 4e-05
x2 = 0.007156, x1 = 1.202e-05	0.00576 ± 6e-05
x2 = 0.007156, x1 = 1.591e-05	0.00748 ± 8e-05
x2 = 0.007156, x1 = 1.939e-05	0.009 ± 9e-05
x2 = 0.007156, x1 = 2.274e-05	0.0105 ± 0.00011
x2 = 0.007156, x1 = 2.585e-05	0.0118 ± 0.00012
x2 = 0.007156, x1 = 2.894e-05	0.01315 ± 0.00013
x2 = 0.007156, x1 = 3.183e-05	0.01439 ± 0.00014
x2 = 0.007156, x1 = 3.476e-05	0.0156 ± 0.00016
x2 = 0.007156, x1 = 3.761e-05	0.0169 ± 0.00017
x2 = 0.0107, x1 = 9.71e-06	0.00386 ± 4e-05
x2 = 0.0107, x1 = 2.409e-05	0.00888 ± 9e-05
x2 = 0.0107, x1 = 3.038e-05	0.01101 ± 0.00011
x2 = 0.0107, x1 = 3.477e-05	0.0125 ± 0.00013
x2 = 0.0107, x1 = 3.967e-05	0.01408 ± 0.00014
x2 = 0.0107, x1 = 4.399e-05	0.0155 ± 0.00016
x2 = 0.0107, x1 = 4.83e-05	0.0169 ± 0.00017
x2 = 0.0107, x1 = 5.264e-05	0.01825 ± 0.00018
x2 = 0.0107, x1 = 5.673e-05	0.0195 ± 0.0002
x2 = 0.01421, x1 = 1.037e-05	0.00348 ± 4e-05
x2 = 0.01421, x1 = 1.591e-05	0.00514 ± 5e-05
x2 = 0.01421, x1 = 2.109e-05	0.00667 ± 7e-05
x2 = 0.01421, x1 = 2.647e-05	0.00823 ± 8e-05
x2 = 0.01421, x1 = 3.163e-05	0.00971 ± 0.0001
x2 = 0.01421, x1 = 3.643e-05	0.01107 ± 0.00011
x2 = 0.01421, x1 = 4.107e-05	0.01237 ± 0.00012
x2 = 0.01421, x1 = 4.582e-05	0.0137 ± 0.00014
x2 = 0.01421, x1 = 5.048e-05	0.015 ± 0.00015
x2 = 0.01421, x1 = 5.498e-05	0.01621 ± 0.00016
x2 = 0.01421, x1 = 5.983e-05	0.0175 ± 0.00018
x2 = 0.0177, x1 = 1.237e-05	0.00351 ± 4e-05
x2 = 0.0177, x1 = 1.842e-05	0.00504 ± 5e-05
x2 = 0.0177, x1 = 2.347e-05	0.00631 ± 6e-05
x2 = 0.0177, x1 = 2.887e-05	0.00764 ± 8e-05
x2 = 0.0177, x1 = 3.44e-05	0.00899 ± 9e-05
x2 = 0.0177, x1 = 4.072e-05	0.0105 ± 0.00011
x2 = 0.0177, x1 = 4.633e-05	0.0118 ± 0.00012
x2 = 0.0177, x1 = 5.265e-05	0.01333 ± 0.00013
x2 = 0.0177, x1 = 5.909e-05	0.0148 ± 0.00015
x2 = 0.0177, x1 = 6.545e-05	0.0163 ± 0.00016
x2 = 0.0177, x1 = 7.135e-05	0.0176 ± 0.00018

CCCC[n+]1ccn(C)c1.[Cl-] + OC[C@H]1O[C@H](O[C@H]2[C@H](O)[C@@H](O)C(O)O[C@@H]2CO)[C@H](O)[C@@H](O)[C@@H]1O + O
298.15 K
Conditions	electrical conductivity [S/m]
x2 = 0, x1 = 8.71e-06	0.00583 ± 6e-05
x2 = 0, x1 = 1.208e-05	0.00794 ± 8e-05
x2 = 0, x1 = 1.485e-05	0.00965 ± 0.0001
x2 = 0, x1 = 1.707e-05	0.01101 ± 0.00011
x2 = 0, x1 = 1.937e-05	0.01241 ± 0.00012
x2 = 0, x1 = 2.164e-05	0.0138 ± 0.00014
x2 = 0, x1 = 2.397e-05	0.0152 ± 0.00015
x2 = 0, x1 = 2.6e-05	0.0164 ± 0.00017
x2 = 0, x1 = 2.824e-05	0.0177 ± 0.00018
x2 = 0, x1 = 3.029e-05	0.019 ± 0.00019

CCCCCCCCn1cc[n+](C)c1.[Br-] + [Cl-].[Li+] + O
298.15 K
Conditions	viscosity [mPa·s]
x2 = 0, x3 = 0.9487	7.96 ± 0.41
x2 = 0.00845, x3 = 0.9403	7.94 ± 0.41
x2 = 0.0171, x3 = 0.9316	8.68 ± 0.45
x2 = 0.02497, x3 = 0.9237	10.09 ± 0.53
x2 = 0.03315, x3 = 0.9155	10.9 ± 0.57
x2 = 0.04088, x3 = 0.9078	12.6 ± 0.66

CCCC[n+]1ccn(C)c1.O=S(=O)([O-])C(F)(F)F + c1ccccc1
Conditions	viscosity [mPa·s]
298.15 K, x2 = 0	88 ± 11
298.15 K, x2 = 0.122	64.3 ± 3.6
298.15 K, x2 = 0.573	12.62 ± 0.69
308.15 K, x2 = 0.122	42.2 ± 2.2
308.15 K, x2 = 0.304	25.4 ± 1.3
318.15 K, x2 = 0.467	10.64 ± 0.59
318.15 K, x2 = 0.573	7.22 ± 0.42
328.15 K, x2 = 0.304	13.62 ± 0.74
328.15 K, x2 = 0.467	8.2 ± 0.47
